The values below come from patent US20060247320A1, “Compounds for inhibiting KSP kinesin activity” (priority 2005, published 2006).

The target in the assay is T1, KSP motor domain (Homo sapiens, UniProt P52732).
T1 sequence (P52732 18-359 limits assumed): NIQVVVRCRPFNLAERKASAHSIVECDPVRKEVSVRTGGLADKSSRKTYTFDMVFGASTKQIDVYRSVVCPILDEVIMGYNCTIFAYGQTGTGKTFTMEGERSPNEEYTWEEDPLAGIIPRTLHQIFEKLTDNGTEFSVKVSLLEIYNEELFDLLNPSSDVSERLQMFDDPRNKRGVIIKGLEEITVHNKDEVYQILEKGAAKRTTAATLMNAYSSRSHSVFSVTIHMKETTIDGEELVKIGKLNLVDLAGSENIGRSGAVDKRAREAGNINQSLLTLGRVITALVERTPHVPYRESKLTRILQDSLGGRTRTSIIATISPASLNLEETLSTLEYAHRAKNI
The experiment in a line: biochemical.

Where [1] appears, read: KSP inhibitory activity, end-point assay, class symbols (Table 1), read-out: IC50.
[2] abbreviates: exact IC50 values, end-point assay (Table 2), read-out: IC50.
Setting [3] is: IC50 (nM), KSP inhibitory activity, end-point assay, class symbols (Table 1).

Like-named read-outs stand apart in the source and are kept apart here.

In the case of `CCC(CN)NC(=O)c1cc2cc3c(nc2s1)CCC(C(C)(C)C)C3` (stereo not drawn) [Example 177], the IC50 reads like this: under setting [1], less than 100 nM; under setting [2], 65 nM.

As for `CC(C)(C)C1CCc2nc3sc(C(=O)NC(CN)c4ccccc4)cc3cc2C1` (stereo not drawn) [Example 178], the IC50 by setting is: under setting [1], less than 100 nM; under setting [2], 25 nM.

Consider `CC(C)(C)C1CCc2nc3sc(C(=O)N[C@H](CN)Cc4ccccc4)cc3cc2C1` (stereo partly drawn) [Example 179], for which the IC50 under setting [1] lay in the range of 100 to 1000 nM.

As to `CC(C)(C)C1CCc2nc3sc(C(=O)N[C@H](CN)Cc4ccc(O)cc4)cc3cc2C1` (stereo partly drawn) [Example 180], the IC50 under setting [1] is 100 to 1000 nM.

In the case of `CC(C)(C)C1CCc2nc3sc(-c4ncc[nH]4)cc3cc2C1` (stereo not drawn) [Example 181, 6-tert-Butyl-2-(1H-imidazol-2-yl)-5,6,7,8-tetrahydrothieno[2,3-b]quinoline], under setting [1], the IC50 lay within 100 to 1000 nM.

Take `CC(C)(C)C1CCc2nc3sc(-c4nnc[nH]4)cc3cc2C1` (stereo not drawn) [Example 182, 6-tert-Butyl-2-(4H-[1,2,4]triazol-3-yl)-5,6,7,8-tetrahydrothieno[2,3-b]quinoline]: the IC50 under setting [1] was in the range of 100 to 1000 nM.

Turning to `CC(C)(C)C1CCc2nc3sc(-c4ncc(CO)[nH]4)cc3cc2C1` (stereo not drawn) [Example 183, [2-(6-tert-Butyl-5,6,7,8-tetrahydrothieno[2,3-b]quinolin-2-yl)-3H-imidazol-4-yl]methanol], under setting [1], the IC50 is 1000 to 10000 nM.

In the case of `CC(C)(C)C1CCc2nc3sc(-c4ncc(CN)[nH]4)cc3cc2C1` (stereo not drawn) [Example 184, [2-(6-tert-Butyl-5,6,7,8-tetrahydrothieno[2,3-b]quinolin-2-yl)-3H-imidazol-4-yl]methylamine], under setting [1], the IC50 lay within 100 to 1000 nM.

Take `CC(C)(C)C1CCc2nc3sc(-c4ncc(CO)o4)cc3cc2C1` (stereo not drawn) [Example 185, [2-(6-tert-Butyl-5,6,7,8-tetrahydrothieno[2,3-b]quinolin-2-yl)oxazol-5-yl]methanol]: under setting [1], the IC50 is 1000 to 10000 nM.

Regarding `CC(C)(C)C1CCc2nc3sc(-c4ncc(CN)o4)cc3cc2C1` (stereo not drawn) [Example 186, [2-(6-tert-Butyl-5,6,7,8-tetrahydrothieno[2,3-b]quinolin-2-yl)oxazol-5-yl]methylamine], the IC50 under setting [1] lay in the range of 1000 to 10000 nM.

Compound `CCOC(=O)c1sc2nc3c(cc2c1N)CC([Si](C)(C)C)CC3` (stereo not drawn) [Example 187, Ethyl 3-Amino-5,6,7,8-Tetrahydro-6-(Trimethylsilyl)thieno[2,3-b]quinoline-2-Carboxylate] displayed an IC50 under setting [3] greater than 10000 nM.

In turn, `CCOC(=O)c1cc2cc3c(nc2s1)CCC([Si](C)(C)C)C3` (stereo not drawn) [Example 188, Ethyl 5,6,7,8-Tetrahydro-6-(Trimethylsilyl)thieno[2,3b]quinoline-2-Carboxylate] had an IC50 under setting [3] greater than 10000 nM.

As to `C[C@@H](CO)NC(=O)c1cc2cc3c(nc2s1)CCC([Si](C)(C)C)C3` (stereo partly drawn) [Example 190, 5,6,7,8-Tetrahydro-N-(2-hydroxy-1(S)-methylethyl)-6-(Trimethylsilyl)thieno[2,3-b]quinoline-2-Carboxamide], the “IC50 (nM)” value (KSP inhibitory activity, end-point assay, class symbols (Table 1)) is “B/C”.

With `C[Si](C)(C)C1CCc2nc3sc(C(=O)NCCN)cc3cc2C1` (stereo not drawn) [Example 191, N-(2-Aminoethyl) 5,6,7,8-Tetrahydro-6-(Trimethylsilyl)thieno[2,3-b]quinoline-2-Carboxamide], the IC50 was less than 100 nM under setting [3] and 10 nM (IC50 (nM), exact IC50 values, end-point assay (Table 2)).

Turning to `CC(C)(C)C1CCc2nc3sc(C(=O)NCCN)c(N)c3cc2C1` (stereo not drawn) [Example 193, 3-Amino-N-(2-Aminoethyl)-6-(1,1-Dimethylethyl)-5,6,7,8-Tetrahydrothieno[2,3-b]quinoline-2-Carboxamide], the IC50 under setting [1] is 1000 to 10000 nM.

For `CC(C)(C)C1CCc2nc3sc(C(=O)NCCN4CCOCC4)cc3cc2C1` (stereo not drawn) [Example 194, 6-(1,1-Dimethylethyl)-5,7,8-Tetrahydro-N-[2-(4-Morpholinyl)ethyl]thieno[2,3-b]quinoline-2-Carboxamide], the IC50 under setting [1] lay within 1000 to 10000 nM.

For the compound `CC(C)(C)C1CCc2nc3sc(C(=O)NCC4CCNCC4)cc3cc2C1` (stereo not drawn) [Example 195, 6-(1,1-Dimethylethyl)-5,6,7,8-Tetrahydro-N-(4-Piperidinylmethyl)thieno[2,3-b]quinoline-2-Carboxamide], the IC50 under setting [1] lay in the range of 1000 to 10000 nM.

`CC(C)(C)C1CCc2nc3sc(C(=O)NCCCN4CCCC4=O)cc3cc2C1` (stereo not drawn) [Example 196, 6-(1,1-Dimethylethyl)-5,6,7,8-Tetrahydro-N-[3-(2-oxo-1-Pyrrolidinyl)propyl]thieno[2,3-b]quinoline-2-Carboxamide]: the IC50 under setting [1] was in the range of 1000 to 10000 nM.

Turning to `CC(C)(C)C1CCc2nc3sc(C(=O)NCCN4CCNCC4)cc3cc2C1` (stereo not drawn) [Example 197, 6-(1,1-Dimethylethyl)-5,6,7,8-Tetrahydro-N-[2-(1-Piperazinyl)ethyl]thieno[2,3-b]quinoline-2-Carboxamide], the IC50 under setting [1] was 100 to 1000 nM.

In the case of `CC(C)(C)C1CCc2nc3sc(C(=O)NCCN4CCCCC4)cc3cc2C1` (stereo not drawn) [Example 198, 6-(1,1-Dimethylethyl)-5,6,7,8-Tetrahydro-N-[2-(1-Piperidinyl)ethyl]thieno[2,3-b]quinoline-2-Carboxamide], the half-inhibitory concentration (IC50) under setting [1] lay in the range of 1000 to 10000 nM.

As for `CC(C)(C)C1CCc2nc3sc(C(=O)NCCN4CCCC4)cc3cc2C1` (stereo not drawn) [Example 199, 6-(1,1-Dimethylethyl)-5,6,7,8-tetrahydro-N-[2-(1-Pyrrolidinyl)ethyl]thieno[2,3-b]quinoline-2-Carboxamide], the 50% inhibitory concentration (IC50) under setting [1] was 1000 to 10000 nM.

Take `CC(C)(C)C1CCc2nc3sc(C(=O)NN4CCOCC4)cc3cc2C1` (stereo not drawn) [Example 200, 6-(1,1-Dimethylethyl)-5,6,7,8-Tetrahydro-N-(4-Morpholinyl)thieno[2,3-b]quinoline-2-Carboxamide]: the half-inhibitory concentration (IC50) under setting [1] lay within 1000 to 10000 nM.

As for `CC1Cc2nc3sc(C#N)c(N)c3cc2CC1C(C)(C)C` (stereo not drawn) [Example 202, 3-Amino-6-tert-butyl-7-methyl-5,6,7,8-tetrahydrothieno[2,3-b]quinoline-2-carbonitrile], the IC50 under setting [1] lay in the range of 100 to 1000 nM.

`CC1Cc2nc3sc(C#N)cc3cc2CC1C(C)(C)C` (stereo not drawn) [Example 203, 6-tert-Butyl-7-methyl-5,6,7,8-tetrahydro-thieno[2,3,-b]quinoline-2-carbonitrile]: the IC50 under setting [1] was in the range of 100 to 1000 nM.

`CC1Cc2nc3sc(C(N)=O)cc3cc2CC1C(C)(C)C` (stereo not drawn) [Example 204, 6-tert-Butyl-7-methyl-5,6,7,8-tetrahydro-thieno[2,3,-b]quinoline-2-carboxylic acid amide]: under setting [1], the IC50 was 100 to 1000 nM.

Take `CCC1Cc2nc3sc(C#N)c(N)c3cc2CC1C(C)(C)C` (stereo not drawn) [Example 205, 3-Amino-6-tert-butyl-7-ethyl-5,6,7,8-tetrahydrothieno[2,3-b]quinoline-2-carbonitrile]: under setting [1], the IC50 lay within 1000 to 10000 nM.

For `CCC1Cc2nc3sc(C#N)cc3cc2CC1C(C)(C)C` (stereo not drawn) [Example 206, 6-tert-Butyl-7-ethyl-5,6,7,8-tetrahydro-thieno[2,3,-b]quinoline-2-carbonitrile], the IC50 under setting [1] was 1000 to 10000 nM.

As to `CC(C)C1Cc2cc3c(N)c(C#N)sc3nc2CC1C` (stereo not drawn) [Example 207, 3-Amino-6-isopropyl-7-methyl-5,6,7,8-tetrahydro-thieno[2,3-b]quinoline-2-carbonitrile], under setting [1], the IC50 is greater than 10000 nM.

For the compound `CC(C)C1Cc2cc3cc(C#N)sc3nc2CC1C` (stereo not drawn) [Example 208, 6-isopropyl-7-methyl-5,6,7,8-tetrahydro-thieno[2,3,-b]quinoline-2-carbonitrile], under setting [1], the 50% inhibitory concentration (IC50) fell in the range of 100 to 1000 nM.

With `CC(C)C1Cc2cc3cc(C(N)=O)sc3nc2CC1C` (stereo not drawn) [Example 209, 6-isopropyl-7-methyl-5,6,7,8-tetrahydro-thieno[2,3,-b]quinoline-2-carboxylic acid amide], the IC50 under setting [1] is 100 to 1000 nM.

`CC(C)(C)C1CCc2nc3sc(C(=O)N[C@H](CN)c4cccc(Br)c4)cc3cc2C1` (stereo partly drawn) [Example 210, 6-tert-butyl-5,6,7,8-tetrahydro-thieno[2,3-b]quinoline-2-carboxylic acid [(1S)-2-amino-1-(3-bromo-phenyl)-ethyl]-amide]: the IC50 under setting [1] lay in the range of 100 to 1000 nM.

`CC(C)(C)C1CCc2nc3sc(C(=O)N[C@H](CN)c4cccc(-c5ccccc5)c4)cc3cc2C1` (stereo partly drawn) [Example 211, 6-tert-butyl-5,6,7,8-tetrahydro-thieno[2,3-b]quinoline-2-carboxylic acid [(1S)-2-amino-1-biphenyl-3-yl-ethyl)-amide]: under setting [1], the IC50 was in the range of 100 to 1000 nM.

`CC(C)(C)C1CCc2nc3sc(C(=O)N[C@H](CN)c4cccc(-c5ccncc5)c4)cc3cc2C1` (stereo partly drawn) [Example 212, 6-tert-butyl-5,6,7,8-tetrahydro-thieno[2,3-b]quinoline-2-carboxylic acid [(1S)-2-amino-1-(3-pyridin-4-yl-phenyl)-ethyl]-amide]: the IC50 under setting [1] lay within 100 to 1000 nM.

For the compound `CC(C)(C)C1CCc2nc3sc(C(=O)N[C@H](CN)c4cccc(-c5cccc6cccnc56)c4)cc3cc2C1` (stereo partly drawn) [Example 213, 6-tert-butyl-5,6,7,8-tetrahydro-thieno[2,3-b]quinoline-2-carboxylic acid [(1S)-2-amino-1-(3-quinolin-8-yl-phenyl)-ethyl]-amide], the IC50 under setting [1] lay in the range of 100 to 1000 nM.

On to `CC(C)(C)C1CCc2nc3sc(C(=O)N[C@H](CN)c4cccc([N+](=O)[O-])c4)cc3cc2C1` (stereo partly drawn) [Example 214], for which the IC50 under setting [1] is less than 100 nM.

As for `CC(C)(C)C1CCc2nc3sc(C(=O)N[C@H](CN)c4ccc([N+](=O)[O-])cc4)cc3cc2C1` (stereo partly drawn) [Example 215], the IC50 under setting [1] was less than 100 nM.

Consider `CC(C)(C)C1CCc2nc3sc(C(=O)N[C@H](CN)c4ccc(C#N)cc4)cc3cc2C1` (stereo partly drawn) [Example 216], for which the IC50 under setting [1] was less than 100 nM.

For `CC(C)(C)C1CCc2nc3sc(C(=O)N[C@H](CN)c4cccc(N)c4)cc3cc2C1` (stereo partly drawn) [Example 217], the IC50 under setting [1] is less than 100 nM.

For the compound `CC(C)(C)C1CCc2nc3sc(C(=O)N[C@H](CN)c4ccc(N)cc4)cc3cc2C1` (stereo partly drawn) [Example 218], the IC50 under setting [1] was less than 100 nM.
